The pest or weed control is how far the test organism was held down.

Experiment [1] has as its system Monographella nivalis (Microdochium nivale). Briefly: Monographella nivalis (Microdochium nivale) / liquid culture (foot rot cereals). It is filed as cell-based. Particulars: at ≦200 ppm, liquid culture PDB, inhibition of growth photometrically 4-5 days after application, read-out: control of Monographella nivalis. How it is done:
Monographella nivalis (Microdochium nivale)/Liquid Culture (Foot Rot Cereals): Conidia of the fungus from cryogenic storage were directly mixed into nutrient broth (PDB potato dextrose broth). After placing a DMSO solution of test compound into a 96-well microtiter plate, the nutrient broth containing the fungal spores was added. The test plates were incubated at 24° C. and the inhibition of growth was determined photometrically 4-5 days after application. […].57; 2.513; 2.559; 2.558; 2.556; 2.555; 2.374; 2.553; 2.551 (fraction B); 2.551 (fraction A); 2.548; 2.544; 2.542; 2.541; 2.539; 2.536; 2.535; 2.533; 2.530; 2.528; 2.526; 2.525 (fraction B); 2.525 (fraction A); 2.524; 2.519; 2.518; 2.516; 2.514; E/E-5.167; 2.512; 2.514

Experiment [2] has as its system Mycosphaerella graminicola (Septoria tritici). Briefly: Mycosphaerella graminicola (Septoria tritici) / liquid culture (Septoria blotch). As to conditions: Zymoseptoria tritici; at ≦200 ppm, liquid culture PDB, inhibition of growth photometrically 4-5 days after application; read-out: control of Mycosphaerella graminicola. The format is cell-based.
Experiment [3] has as its system Mycosphaerella arachidis (Cercospora arachidicola). Briefly: Mycosphaerella arachidis (Cercospora arachidicola) / liquid culture (early leaf spot). As to conditions: at ≦200 ppm, liquid culture PDB, inhibition of growth photometrically 4-5 days after application, read-out: control of Mycosphaerella arachidis. The format is cell-based. The method, then:
Mycosphaerella arachidis (Cercospora arachidicola)/Liquid Culture (Early Leaf Spot): Conidia of the fungus from cryogenic storage were directly mixed into nutrient broth (PDB potato dextrose broth). After placing a DMSO solution of test compound into a 96-well microtiter plate, the nutrient broth containing the fungal spores was added. The test plates are incubated at 24° C. and the inhibition of growth was determined photometrically 4-5 days after application. […]-2.509; 5.561; 2.561; P.57; 2.513; 2.559; 2.558; 2.557; 2.556; 2.555; 2.374; 2.553; 2.552; 2.551 (fraction B); 2.551 (fraction A); 2.544; 2.541; 2.539; 2.537; 2.536; 2.533; 2.532; 2.531; 2.530; 2.528; 2.526; 2.525 (fraction B); 2.525 (fraction A); 2.524; 2.520; 2.519; 2.510; 2.518; 2.517; 2.516; 2.514; […].002; 2.512; 2.511; 2.514

The subject of the next experiment is Gaeumannomyces graminis. Briefly: Gaeumannomyces graminis / liquid culture (take-all of cereals). The format is cell-based. Particulars: at ≦200 ppm, liquid culture PDB, inhibition of growth photometrically 4-5 days after application, read-out: control of Gaeumannomyces graminis. How it is done:
Gaeumannomyces graminis/Liquid Culture (Take-All of Cereals): Mycelial fragments of the fungus from cryogenic storage were directly mixed into nutrient broth (PDB potato dextrose broth). After placing a DMSO solution of test compound into a 96-well microtiter plate, the nutrient broth containing the fungal spores is added. The test plates were incubated at 24° C. and the inhibition of growth was determined photometrically 4-5 days after application. […]-2.509; 5.561; 2.561; P.57; 2.513; 2.559; 2.558; 2.557; 2.556; 2.555; 2.374; 2.553; 2.552; 2.551 (fraction B); 2.551 (fraction A); 2.539; 2.533; 2.528; 2.526; 2.525 (fraction B); 2.525 (fraction A); 2.524; 2.523; 2.521; 2.520; 2.519; 2.510; 2.518; 2.516; 2.514; E/E-5.167; E/E-3.002; 2.512; E/E-2.508

The test system of a further experiment is Glomerella lagenarium. Put plainly: Glomerella lagenarium (Colletotrichum lagenarium) / liquid culture (anthracnose). It is filed as cell-based. Particulars: Colletotrichum orbiculare; at ≦200 ppm, liquid culture PDB, inhibition of growth photometrically 3-4 days after application; read-out: control of Glomerella lagenarium. How it is done: Glomerella lagenarium (Colletotfichum lagenarium)/Liquid Culture (Anthracnose): Conidia of the fungus from cryogenic storage were directly mixed into nutrient broth (PDB potato dextrose broth). After placing a DMSO solution of test compound into a 96-well microtiter, the nutrient broth containing the fungal spores was added. The test plates were incubated at 24° C. and the inhibition of growth is measured photometrically 3-4 days after application. […]-2.509; 5.561; 2.561; E/E-2.208; P.57; 2.513; 2.559; 2.556; 2.555; 2.374; 2.552; 2.548; 2.544; 2.541; 2.540; 2.539; 2.537; 2.536; 2.533; 2.531; 2.530; 2.528; 2.526; 2.519; 2.510; 2.516; 2.514; E/E-5.167; E/E-3.002; 2.512; 2.514; Z/E-2.474

For experiment [4], the system named is Phaeosphaeria nodorum (Septoria nodorum). Put plainly: Phaeosphaeria nodorum (Septoria nodorum) / wheat / leaf disc preventative (glume blotch). The format is in vivo. Particulars: Parastagonospora nodorum, foliar, wheat leaf segments cv Kanzler, inoculated 2 days after application, assessed 5-7 days after application. How it is done: Phaeosphaeria nodorum (Septoria nodorum)/Wheat/Leaf Disc Preventative (Glume Blotch): Wheat leaf segments cv Kanzler were placed on agar in a 24-well plate and sprayed with formulated test compound diluted in water at an application rate of 200 ppm. The leaf disks are inoculated with a spore suspension of the fungus 2 days after application. The inoculated test leaf disks are incubated at 20° C. and 75% relative humidity under a light regime of 12/12 h (light/dark) in a climate cabinet and the activity of a compound is assessed as percent disease control compared to untreated when an appropriate level of disease damage appears in untreated check leaf disks (5-7 days after application). […]-2.508; 5.561; 2.561; E/E-2.208; P.57; 2.513; 2.559; 2.558; 2.557; 2.556; 2.555; 2.374; 2.544; 2.541; 2.539; 2.537; 2.536; 2.535; 2.533; 2.530; 2.526; 2.519; 2.510; 2.516; 2.514; E/E-5.167; E/E-3.002; 2.512

Turning to `C/C(=N\OCC(C)(C)CO/N=C1\CCCc2ccc(C)nc21)c1ncc(C(F)(F)F)cc1Cl` (single isomer, unassigned) [2.551 (fraction B)], the inhibition of growth at up to 200 µg/mL (in experiment [1]; in experiment [2]; in experiment [3]; in the experiment with Gaeumannomyces graminis) was ≥ 80% in each case.
With `COC(=O)C/C(=N/OCC(C)(C)CO/N=C1\CCCc2ccc(C)nc21)c1ncc(Cl)cc1F` [Compound 2.518], the inhibition of growth at up to 200 µg/mL (in experiment [1]; in experiment [3]; in the experiment on Gaeumannomyces graminis) was ≥ 80% in each case.
On to `Cc1ccc2c(n1)/C(=N/OCC(C)(C)CO/N=C(/c1ccccn1)c1ncc(C(F)(F)F)cc1Cl)CCC2` [Compound 2.520], for which the inhibition of growth at up to 200 µg/mL (in experiment [3]; with Gaeumannomyces graminis) was ≥ 80% each time.
Take `Cc1ccc2c(n1)/C(=N/OCC(C)(C)CO/N=C(/c1ccccc1)c1ncc(C(F)(F)F)cc1Cl)CCC2` [Compound 2.521]: in the experiment on Gaeumannomyces graminis, the inhibition of growth at up to 200 µg/mL was ≥ 80%.
The same measure, in the same setting: to `CCOC(=O)c1ccc(/C(C)=N\OCC(C)(C)CO/N=C2\CCCc3ccc(C)nc32)nc1C(F)(F)F` [Compound 2.523] belongs ≥ 80%.
Consider `CC/C(=N/OCC(C)(C)CO/N=C1\CCCc2ccc(C)nc21)c1ccc(C(F)(F)F)cn1` [Compound 2.524], for which the inhibition of growth at up to 200 µg/mL (in experiment [1]; in experiment [3]; with Gaeumannomyces graminis) was ≥ 80% each time.
As for `C/C(=N\OCC(C)(C)CO/N=C1\CCCc2ccc(C)nc21)c1cc(C#N)ccn1` [Compound 2.531], the inhibition of growth at up to 200 µg/mL (in experiment [2]; in experiment [3]; in the experiment with Glomerella lagenarium) was ≥ 80% each time.
Consider `Cc1ccc2c(n1)/C(=N/OCC(C)(C)CO/N=C(\c1ccc(Cl)cc1)c1ccccn1)CCC2` [Compound 2.532], for which the inhibition of growth at up to 200 µg/mL in experiment [2] and in experiment [3] was ≥ 80% each time.
For `CSc1nc(/C=N/OCC(C)(C)CO/N=C2\CCCc3ccc(C)nc32)ccc1C#N` [Compound 2.535], the inhibition of growth at up to 200 µg/mL in experiment [1] and in experiment [2] was ≥ 80% throughout. In experiment [4], the pest or weed control at 200 ppm was ≥ 80%.
Consider `C/C(=N\OCC(C)(C)CO/N=C1\CCCc2ccc(C)nc21)c1cccc(C#N)n1` [Compound 2.536], for which the inhibition of growth at up to 200 µg/mL (in experiment [1]; in experiment [2]; in experiment [3]; in the experiment on Glomerella lagenarium) was ≥ 80% each time. Moreover, the pest or weed control at 200 ppm in experiment [4] is ≥ 80%.
For the compound `Cc1ccc2c(n1)/C(=N/OCC(C)(C)CO/N=C(/c1cccc(Br)n1)c1ccccc1C)CCC2` [Compound 2.539], the inhibition of growth at up to 200 µg/mL (in experiment [1]; in experiment [2]; in experiment [3]; in the experiment with Gaeumannomyces graminis; in the experiment on Glomerella lagenarium) was ≥ 80% each time. In addition, in experiment [4], the pest or weed control at 200 ppm is ≥ 80%.
Take `COC(=O)c1ccc(C(F)(F)F)nc1/C(C)=N/OCC(C)(C)CO/N=C1\CCCc2ccc(C)nc21` [Compound 2.540]: the inhibition of growth at up to 200 µg/mL (in experiment [2]; in the experiment on Glomerella lagenarium) was ≥ 80% throughout.
In the case of `C/C(=N\OCC(C)(C)CO/N=C1\CCCc2ccc(C)nc21)c1cc(C(C)(C)C)ccn1` [Compound 2.541], the inhibition of growth at up to 200 µg/mL (in experiment [1]; in experiment [2]; in experiment [3]; with Glomerella lagenarium) was ≥ 80% each time. Also, in experiment [4], the pest or weed control at 200 ppm is ≥ 80%.
As for `Cc1ccc2c(n1)/C(=N/OCC(C)(C)CO/N=C(/c1ncc(Cl)cc1Cl)C(C)C)CCC2` [Compound 2.542], the inhibition of growth at up to 200 µg/mL in experiment [1] and in experiment [2] was ≥ 80% throughout.
On to `Cc1ccc2c(n1)/C(=N/OCC(C)(C)CO/N=C(\c1ncc(Cl)cc1F)C(C)Cl)CCC2` (stereo not drawn) [Compound 2.545], for which the inhibition of growth at up to 200 µg/mL in experiment [2] was ≥ 80%.
As for `C/C(=N\OCC(C)(C)CO/N=C1\CCCc2ccc(C)nc21)c1ncc(Cl)cc1O` [Compound 2.548], the inhibition of growth at up to 200 µg/mL (in experiment [1]; in experiment [2]; with Glomerella lagenarium) was ≥ 80% each time.
With `CC/C(=N\OCC(C)(C)CO/N=C1\CCCc2ccc(C)nc21)c1ncc(Cl)cc1Cl` [Compound 2.549], the inhibition of growth at up to 200 µg/mL in experiment [2] was ≥ 80%.
`C/C(=N\OCC(C)(C)CO/N=C1\CCCc2ccc(C)nc21)c1ncc(Cl)cc1F` [E/E-2.509]: the inhibition of growth at up to 200 µg/mL (in experiment [1]; in experiment [2]; in experiment [3]; with Gaeumannomyces graminis; in the experiment with Glomerella lagenarium) was ≥ 80% throughout.
With `Cc1cccc(/C(=N\OCC(C)(C)CO/N=C2\CCCc3ccc(C)nc32)c2ccccc2)n1` [Z/E-2.474], the inhibition of growth at up to 200 µg/mL (in experiment [3]; in the experiment on Glomerella lagenarium) was ≥ 80% throughout.

(Values after patent US20130102631A1, “NOVEL MICROBIOCIDAL DIOXIME ETHER DERIVATIVES” (SYNGENTA CROP PROTECTION LLC, priority 2010, published 2013).)
